In patent US20220178900A1, “BIORELEVANT COMPOSITION” (BIORELEVANT.COM LTD., priority 2019, published 2022):

Experiments:
Assay type in all cases: physicochemical
[1] = FEDGAS dissolution media stored for 72 hrs at room temperature; conditions: 160 mg capsules in 900 mL; FEDGAS pH 6, pH 4.5, pH 3; room temperature storage
Description: The dissolution of danazol (100 mg) hard gelatine capsules was carried out in fasted state gastric media (control) and compared with biorelevant fed state gastric media at pH 6, pH 4.5 and pH 3 as described using the set up and method in the Case Study 1. Referring to FIG. 6, the dissolution in fasted gastric media is negligible even after 2 hours of dissolution. Less than 0.2% of the drug dose is dissolved even after 2 hours of dissolution. […] Dissolution reaches about 55% of the dosage form within 60 minutes in fed state gastric media at pH 6, pH4.5 and pH 3 respectively. Case Study 6—Examining Physicochemical Properties of FEDGAS Dissolution Media Stored for 72 Hrs at Room Temperature with Dissolution of Megesterol Acetate Capsules FEDGAS media at pH 6, pH 4.5 and pH 3 were prepared by adding the appropriate amount of water in a suitable container, adding the corresponding buffer concentrate and adding the appropriate amount of readily water dispersible biorelevant precursor concentrate and mixing with a magnetic stirrer until homogeneous. The three media were stored at room temperature for up to 72 hours. […] The pH, buffer capacity, surface tension and particle size (Z-average) of the FEDGAS pH 6 and FEDGAS pH 3 were measured at t=0 and at t=72 hours. […]

[2] = Dissolution in biorelevant fed state gastric media (FEDGAS), USP 2 Dissolution Apparatus at 75 rpm, HPLC; conditions: within 60 minutes; fed state gastric media at pH 6, pH 4.5 and pH 3
[3] = Dissolution in fasted state gastric media (control experiment); conditions: for drug dose dissolved: after 2 hours of dissolution, fasted state gastric media
Description: (§1) Three biorelevant fed state gastric media at pH 6, pH 5 and pH 3 using the composition in Table 5 were produced. The media at these three pHs were characterised by measuring pH, buffer capacity, particle size (Z-average and polydispersity using Nanosizer) and surface tension (Kruss surface tension K6). The media were stable at time zero and physically stable after 24 hours. Similarly, the key physicochemical properties were unchanged after 24 hours. The dissolution of exemestane (4 tablet×25 mg tablets) in the media was carried out using USP 2 Dissolution Apparatus at 75 rpm (n=6 vessels). Samples of the three biorelevant media were taken from the dissolution vessels and filtered through a 0.45 micrometer nylon filter with prefilter at 5 mins, 10 mins, 15 mins, 20 mins, 25 mins, 30 mins, 45 mins, 60 mins, 90 mins and 120 mins and analysed for exemestane content by HPLC. […] Within 30 minutes more than 80% of the drug was dissolved across the three media.
The dissolution of Sturgeron (15 mg cinnarizine immediate release tablets) was tested in a fasted gastric media (control experiment) and compared with fed gastric media at pH 6, pH 5 and pH 3 using the same dissolution set up as described previously. The dissolution profile of this drug product in the fasted gastric media indicates this basic drug cinnarizine dissolves rapidly in the fasted stomach. […]
The dissolution of danazol (100 mg) hard gelatine capsules was carried out in fasted state gastric media (control) and compared with biorelevant fed state gastric media at pH 6, pH 4.5 and pH 3 as described using the set up and method in the Case Study 1. […] Case Study 6—Examining Physicochemical Properties of FEDGAS Dissolution Media Stored for 72 Hrs at Room Temperature with Dissolution of Megesterol Acetate Capsules FEDGAS media at pH 6, pH 4.5 and pH 3 were prepared by adding the appropriate amount of water in a suitable container, adding the corresponding buffer concentrate and adding the appropriate amount of readily water dispersible biorelevant precursor concentrate and mixing with a magnetic stirrer until homogeneous. […]

[4] = Dissolution in biorelevant fed state gastric media (FEDGAS), USP 2 Dissolution Apparatus at 75 rpm, HPLC; conditions: for dissolution in fed state gastric media compared with fasted state gastric media: fed state gastric media across pH 6 to pH 3; for pH dependence of dissolution profiles in fed state gastric media: fed state media pH 6, pH 5, pH 3
Description: In the case studies from 1 to 4, FEDGAS media at pH 6, pH 5 and pH 3 were prepared by adding the appropriate amount of purified water in a suitable container, adding the corresponding buffer concentrate and adding the appropriate amount of biorelevant precursor concentrate and mixing with a magnetic stirrer until homogeneous.
as §1

Structure (SMILES) | drug dose dissolved [3] | dissolution in fed state gastric media compared with fasted state gastric media [4] | pH dependence of dissolution profiles in fed state gastric media [4] | other results
CC(=O)O[C@]1(C(C)=O)CC[C@H]2[C@@H]3C=C(C)C4=CC(=O)CC[C@]4(C)[C@H]3CC[C@@]21C [megesterol acetate] |  |  |  | dissolution profiles in media stored t=0, 24, 48, 72 hours [1]: identical
C#C[C@]1(O)CC[C@H]2[C@@H]3CCC4=Cc5oncc5C[C@]4(C)[C@H]3CC[C@@]21C [danazol] | Less than 0.2% | considerably more rapidly |  | Dissolution, % of the dosage form [2]: about 55%
C(=C\c1ccccc1)/CN1CCN(C(c2ccccc2)c2ccccc2)CC1 [cinnarizine] |  | slower drug dissolution in all fed state gastric media | faster at lower pH | drug dissolved ([3]; within 30 minutes, fasted gastric media): ~90%
C=C1C[C@@H]2[C@H](CC[C@]3(C)C(=O)CC[C@@H]23)[C@@]2(C)C=CC(=O)C=C12 [exemestane] |  |  | not sensitive to different pHs | drug dissolved ([4]; within 30 minutes, across the three fed state media pH 6, pH 5 and pH 3, 4 x 25 mg tablets): more than 80%
Cc1cccc(Nc2ccccc2C(=O)O)c1C [mefenamic acid] | Less than 0.1% | considerably more rapidly |  | Dissolution, % of the dosage form ([4]; within 30 minutes, fed state gastric media pH 3): ~10%; Dissolution, % of the dosage form ([4]; within 30 minutes, fed state gastric media pH 5): ~25%; Dissolution, % of the dosage form ([4]; within 30 minutes, fed state gastric media pH 6): about 45%
